In series [1] the test system is Diet Induced Obese (DIO) mice. The series can be described thus: Body weight, blood glucose and fat mass in Diet Induced Obese mice, 10 days (Example 6). The format is in vivo, Male C57BL/6 mice. To be noted: male DIO mice; 10 days twice daily intraperitoneal 15 mg/kg; N = 8; mean. As for the experimental part: Animals were randomized to treatment groups based on blood glucose levels and body weight. The peptides of the invention were administered to two groups of male DIG mice once or twice daily by subcutaneous or intraperitoneal injection at a dose of 15 mg/kg/dose for 10 days (N=8 animals per treatment group). An additional group of male DIG mice (n=8) received vehicle (water or saline) alone. Body weight, blood glucose levels and food intake were monitored. Body mass distribution (fat vs lean) was determined by quantitative whole body NMR prior to dosing and at the end of dosing.

A short description of series [2]: Stability in mouse plasma, peptides 10 uM (Example 15). It is filed as in vitro ADME. To be noted: mouse plasma 37° C., peptide 10 uM; for remaining at 0.25 h, 10 uM / remaining at 0.5 h, 10 uM / remaining at 1 h, 10 uM / remaining at 2 h, 10 uM / remaining at 3 h, 10 uM: pooled mouse plasma; for remaining at 0.25 h, 10 uM: 15 min, read-out: % Remaining at Each Time Point: 15 min; for remaining at 0.5 h, 10 uM: 30 min, read-out: % Remaining at Each Time Point: 30 min; for remaining at 1 h, 10 uM: 60 min, read-out: % Remaining at Each Time Point: 60 min; for remaining at 2 h, 10 uM: 120 min, read-out: % Remaining at Each Time Point: 120 min; for remaining at 3 h, 10 uM: 180 min, read-out: % Remaining at Each Time Point: 180 min. As for the experimental part: Peptides (10 uM) were incubated in pooled mouse plasma at 37° C. and samples were removed and immediately analyzed for the concentration of intact peptide by LC/MS/MS over the course of 3 hours. The percent of peptide remaining in plasma at each time point was calculated relative to the initial peak area (Table 13).

The subject of series [3] is 3T3-L1 Adipocytes. The series can be described thus: Free fatty acid levels in cultured mouse 3T3-L1 adipocytes, isoproterenol stimulated (Example 2). The format is cell-based. The conditions noted are these: test peptides 25 μM; isoproterenol 1 nM. The essentials:
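3T3-L1 cells differentiated 12–17 days into adipocytes, then exposed to test peptides at 25 μM final for 18–20 h, then 1 h, then 3 h with isoproterenol (1 nM) at 37 °C. Free fatty acids in the medium measured colorimetrically at 540 nm, corrected for untreated background and expressed relative to isoproterenol-only cells.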

Series [4] is described as follows: Stability in mouse plasma, peptides 100 uM (Example 14). The format is in vitro ADME. To be noted: mouse plasma 37° C., peptide 100 uM; for remaining at 0.25 h, 100 uM / remaining at 0.5 h, 100 uM / remaining at 1 h, 100 uM / remaining at 2 h, 100 uM / remaining at 3 h, 100 uM: pooled mouse plasma; for remaining at 0.25 h, 100 uM: 15 min, read-out: % Remaining at Each Time Point: 15 min; for remaining at 0.5 h, 100 uM: 30 min, read-out: % Remaining at Each Time Point: 30 min; for remaining at 1 h, 100 uM: 60 min, read-out: % Remaining at Each Time Point: 60 min; for remaining at 2 h, 100 uM: 120 min, read-out: % Remaining at Each Time Point: 120 min; for remaining at 3 h, 100 uM: 180 min, read-out: % Remaining at Each Time Point: 180 min. As for the experimental part: Peptides (100 uM) were incubated in pooled mouse plasma at 37° C. and samples were removed and immediately analyzed for the concentration of intact peptide by LC/MS/MS over the course of 3 hours. The percent of peptide remaining in plasma at each time point was calculated relative to the initial peak area (Table 12).

The test system of series [5] is Human Primary Adipocytes. The series is described as follows: Free fatty acid levels in cultured human primary adipocytes, forskolin stimulated (Example 5). It is filed as cell-based. The conditions noted are these: test peptides 25 μM; forskolin 1 μM. As for the experimental part:
Human primary adipocytes were seeded at 5,000-100,000 cells per well on 96-well, 48-well, or 24-well plate in Pre-adipocyte Medium (Zen-Bio, Durham, N.C.) and grown to confluence at 37° C. in a humidified atmosphere of 5% CO2/95% air. Two days after confluence, cells were placed in Adipocyte Differentiation Medium (Zen-Bio, Durham, N.C.) and cultured for three additional days at 37° C. in a humidified atmosphere of 5% CO2/95% air. The culture media was then replaced with Adipocyte Maintenance Medium (Zen-Bio) and the cells were maintained for an additional 11-21 days at 37° C. in a humidified atmosphere of 5% CO2/95% air with partial medium replacement every other day. Following 14-24 days of differentiation, test peptides were added at a final concentration of 25 μM and incubated for 18-20 hours in Adipocyte Maintenance Medium at 37° C. in a humidified atmosphere of 5% CO2/95%. After 18-20 hours, the media was exchanged with fresh Adipocyte Maintenance Medium containing test peptides and incubated for 1 h at 37° C. in a humidified atmosphere of 5% CO2/95%. After 1 h media was exchanged with Assay Buffer (Zen-Bio) containing forskolin (1 μM) (added to all samples except untreated controls) and test peptides. Cells were incubated for a further 3 hours at 37° C. in a humidified atmosphere of 5% CO2/95%. Free fatty acid concentrations in the media were determined using a Free Fatty Acid Assay Kit (Zen-Bio) according to the manufacturer's instructions using a plate reader (540 nm). Absorbance values were corrected for untreated background and expressed relative to forskolin treated cells. Treatment with forskolin (1 μM) alone was used as the free fatty acid level stimulatory control. The relative standard deviation of the forskolin control was <20%. […] Free fatty acid levels for insulin (100 nM) treatment were <8% of the forskolin control value.

Peptide text beside a SMILES is read from it.

The values below come from US11753445B2, “Therapeutic peptides” (COHBAR, INC., priority 2016, dated 2023).

On to `CC[C@H](C)[C@H](NC(=O)[C@H](Cc1ccc(O)cc1)NC(=O)CNC(=O)[C@H](CCSC)NC(=O)[C@H](CCC(=O)O)NC(=O)[C@H](CCC(N)=O)NC(=O)[C@H](Cc1c[nH]c2ccccc12)NC(=O)[C@H](CCCNC(=N)N)NC(=O)[C@@H](N)CCSC)C(=O)N[C@@H](Cc1ccccc1)C(=O)N[C@@H](Cc1ccc(O)cc1)C(=O)N1CCC[C@H]1C(=O)N[C@@H](CCCNC(=N)N)C(=O)N[C@H](C)C(=O)N[C@@H](CC(C)C)C(=O)N[C@@H](CCCNC(=N)N)C(=O)O` [compound 149] (HELM PEPTIDE1{M.R.W.Q.E.M.G.Y.I.F.Y.P.R.[dA].L.R}$$$$V2.0), for which, in series [1], the “Difference from Vehicle Control: Decrease from Baseline in Blood Glucose” value was -11.4 mg/dL, the “Difference from Vehicle Control: Decrease from Baseline in Body Weight (%)” value (from here on “Difference from Vehicle Control: Decrease … (%)”) was −5.22% and the “Difference from Vehicle Control: Decrease from Baseline in Fat Mass” value was -2.13 g. In series [2], the “% Remaining at Each Time Point: 0 min” value is 100%; the share remaining at 0.25 h, 10 uM was found to be 59.3%; the amount remaining at 0.5 h, 10 uM was 36.1%; the share remaining at 1 h, 10 uM stood at 11.1%. Also, in series [2], the fraction remaining at 2 h, 10 uM worked out at 0.98% and the fraction remaining at 3 h, 10 uM is 0.28%. In series [3], the “Free Fatty Acid Levels in 3T3-L1 Adipocytes Expressed as a Percent of Isoproterenol Control: Percent of Control Value” worked out at 38.6%.

Take H-ERWQEAGYIAYPR-OH [compound 241]: in series [1], the “Difference from Vehicle Control: Decrease from Baseline in Blood Glucose” value was -7.00 mg/dL, the “Difference from Vehicle Control: Decrease … (%)” value is −1.49% and the “Difference from Vehicle Control: Decrease from Baseline in Fat Mass” value is -0.34 g. In series [2], the “% Remaining at Each Time Point: 0 min” value was 100%; the fraction remaining at 0.25 h, 10 uM was found to be 98.8%; the share remaining at 0.5 h, 10 uM was 96.8%; the amount remaining at 1 h, 10 uM was determined as 89.5%. Further, in series [2], the fraction remaining at 2 h, 10 uM came out at 84.3% and the fraction remaining at 3 h, 10 uM is 80.7%. Further, the “Free Fatty Acid Levels in 3T3-L1 Adipocytes Expressed as a Percent of Isoproterenol Control: Percent of Control Value” in series [3] is reported as 50.9%.

As to H-MRWQEAGYIFYPRKLR-OH [compound 11], in series [1], the “Difference from Vehicle Control: Decrease from Baseline in Blood Glucose” value was -27.6 mg/dL, the “Difference from Vehicle Control: Decrease … (%)” value is −8.81% and the “Difference from Vehicle Control: Decrease from Baseline in Fat Mass” value was -5.85 g. Also, in series [4], the “% Remaining at Each Time Point: 0 min” value turned out to be 100%; the share remaining at 0.25 h, 100 uM is 18.3%; the share remaining at 0.5 h, 100 uM is 17.5%; the share remaining at 1 h, 100 uM was 11.5%. For the same compound, in series [4], the fraction remaining at 2 h, 100 uM was 5.25% and the fraction remaining at 3 h, 100 uM came to 2.38%. Moreover, the “Free Fatty Acid Levels in 3T3-L1 Adipocytes Expressed as a Percent of Isoproterenol Control: Percent of Control Value” in series [3] came to 78.8%.

With H-MRWQEEGYIFYPRKLR-OH [compound 172], in series [1], the “Difference from Vehicle Control: Decrease from Baseline in Blood Glucose” value was -31.5 mg/dL, the “Difference from Vehicle Control: Decrease … (%)” value was −2.48% and the “Difference from Vehicle Control: Decrease from Baseline in Fat Mass” value is -0.77 g. In addition, in series [2], the “% Remaining at Each Time Point: 0 min” value was 100%; the amount remaining at 0.25 h, 10 uM was found to be 59.4%; the share remaining at 0.5 h, 10 uM was 33.6%; the amount remaining at 1 h, 10 uM was determined as 6.43%. In series [2], the fraction remaining at 2 h, 10 uM was found to be 0.44% and the share remaining at 3 h, 10 uM is 0%. Besides, in series [3], the “Free Fatty Acid Levels in 3T3-L1 Adipocytes Expressed as a Percent of Isoproterenol Control: Percent of Control Value” is 54.2%.

With H-MRWQEMGYIFYARKLR-OH [compound 17], in series [1], the “Difference from Vehicle Control: Decrease from Baseline in Blood Glucose” value is -2.63 mg/dL, the “Difference from Vehicle Control: Decrease … (%)” value is −2.87% and the “Difference from Vehicle Control: Decrease from Baseline in Fat Mass” value was -0.65 g. Moreover, in series [2], the “% Remaining at Each Time Point: 0 min” value came to 100%; the share remaining at 0.25 h, 10 uM was 46%; the fraction remaining at 0.5 h, 10 uM was determined as 26.8%; the share remaining at 1 h, 10 uM came to 11.9%. Also, in series [2], the fraction remaining at 2 h, 10 uM was found to be 11.3% and the amount remaining at 3 h, 10 uM was found to be 7.35%.

For the compound H-MRWQEMGYIFYPAKLR-OH [compound 18], in series [1], the “Difference from Vehicle Control: Decrease from Baseline in Blood Glucose” value amounted to 1.52 mg/dL, the “Difference from Vehicle Control: Decrease … (%)” value is −0.80% and the “Difference from Vehicle Control: Decrease from Baseline in Fat Mass” value is -0.65 g. Moreover, the “Free Fatty Acid Levels in Human Primary Adipocytes Expressed as a Percent of Forskolin Control: Percent of Control Value” in series [5] is 101%. For the same compound, in series [4], the “% Remaining at Each Time Point: 0 min” value worked out at 100%; the amount remaining at 0.25 h, 100 uM was determined as 30.8%; the fraction remaining at 0.5 h, 100 uM stood at 24%; the amount remaining at 1 h, 100 uM turned out to be 19.4%. In addition, in series [4], the share remaining at 2 h, 100 uM is 9.02% and the fraction remaining at 3 h, 100 uM is 4.53%.

For the compound H-MRWQEMGYIFYPRALR-OH [compound 19], in series [1], the “Difference from Vehicle Control: Decrease from Baseline in Blood Glucose” value is -14.5 mg/dL, the “Difference from Vehicle Control: Decrease … (%)” value is reported as −3.27% and the “Difference from Vehicle Control: Decrease from Baseline in Fat Mass” value is -2.34 g. For the same compound, in series [5], the “Free Fatty Acid Levels in Human Primary Adipocytes Expressed as a Percent of Forskolin Control: Percent of Control Value” is listed as 113%. In series [4], the “% Remaining at Each Time Point: 0 min” value worked out at 100%; the amount remaining at 0.25 h, 100 uM came out at 18.8%; the fraction remaining at 0.5 h, 100 uM worked out at 18.2%; the fraction remaining at 1 h, 100 uM was 8.52%. Moreover, in series [4], the share remaining at 2 h, 100 uM was 1.82% and the share remaining at 3 h, 100 uM is 0.22%. Besides, the “Free Fatty Acid Levels in 3T3-L1 Adipocytes Expressed as a Percent of Isoproterenol Control: Percent of Control Value” in series [3] is listed as 66.0%.

Consider H-RWQEMNYIAEPR-OH [compound 251], for which, in series [1], the “Difference from Vehicle Control: Decrease from Baseline in Blood Glucose” value was -34.3 mg/dL, the “Difference from Vehicle Control: Decrease … (%)” value was −0.55% and the “Difference from Vehicle Control: Decrease from Baseline in Fat Mass” value was found to be 0.02 g. For the same compound, in series [2], the “% Remaining at Each Time Point: 0 min” value stood at 100%; the share remaining at 0.25 h, 10 uM stood at 70.6%; the amount remaining at 0.5 h, 10 uM is 47.5%; the amount remaining at 1 h, 10 uM turned out to be 44.4%. Moreover, in series [2], the fraction remaining at 2 h, 10 uM was found to be 38.1% and the share remaining at 3 h, 10 uM was 30.2%. Moreover, in series [3], the “Free Fatty Acid Levels in 3T3-L1 Adipocytes Expressed as a Percent of Isoproterenol Control: Percent of Control Value” stood at 83.7%.
